Columns and labels:
[1] = test system: Human immunodeficiency virus; test: Antiviral activity against HIV; type: functional, organism-based; conditions: Human immunodeficiency virus 1
[2] = target: Human immunodeficiency virus type 1 integrase (Human immunodeficiency virus 1, UniProt Q7ZJM1); test: Inhibition of HIV1 integrase strand transfer activity
[3] = test system: Human immunodeficiency virus; test: Antiviral activity against HIV in presence of 40 mg/mL of purified human serum albumin; type: functional, organism-based; conditions: Human immunodeficiency virus 1
[4] = AUC in CD rat at 5 mg/kg, po; type: ADME, organism-based; design: dose 5 mg/kg, route oral; conditions: plasma
[5] = Ratio of plasma concentration in CD rat at 1 mg/kg, iv and 5 mg/kg, po after 24 hrs to IC50 for HIV in presence of 40 mg/mL of purified human serum albumin; type: ADME, organism-based; conditions: in vivo
[6] = AUC in dog at 5 mg/kg, po; type: ADME, organism-based, Canis lupus familiaris; design: dose 5 mg/kg, route oral; conditions: plasma
[7] = Ratio of plasma concentration in dog at 1 mg/kg, iv and 5 mg/kg, po after 24 hrs to IC50 for HIV in presence of 40 mg/mL of purified human serum albumin; type: ADME, organism-based; conditions: in vivo
[8] = test system: Human immunodeficiency virus; test: Antiviral activity against HIV infected in human MT4 cells; type: functional, organism-based; conditions: Human immunodeficiency virus 1, MT4
[9] = Therapeutic index, ratio of cytotoxicity against human MT4 cells to antiviral activity against HIV; type: cell-based; conditions: read-out: TI
[10] = Ratio of plasma concentration in cynomolgus monkey at 1 mg/kg, iv and 5 mg/kg, po after 24 hrs to IC50 for HIV in presence of 40 mg/mL of purified human serum albumin; type: ADME, organism-based; conditions: in vivo
[11] = Plasma clearance in cynomolgus monkey at 1 mg/kg, iv and 5 mg/kg, po; type: ADME, organism-based, Macaca fascicularis
[12] = AUC (0 to 24 hrs) in cynomolgus monkey at 5 mg/kg, po; type: ADME, organism-based, Macaca fascicularis; design: time < 24 hr, dose 5 mg/kg, route oral; conditions: plasma
[13] = Half life in dog at 1 mg/kg, iv and 5 mg/kg, po; type: ADME, organism-based, Canis lupus familiaris; conditions: in vivo
[14] = Half life in cynomolgus monkey at 1 mg/kg, iv and 5 mg/kg, po; type: ADME, organism-based, Macaca fascicularis; conditions: in vivo
[15] = Plasma clearance in dog at 1 mg/kg, iv and 5 mg/kg, po; type: ADME, organism-based, Canis lupus familiaris
[16] = Half life in CD rat at 1 mg/kg, iv and 5 mg/kg, po; type: ADME, organism-based; conditions: in vivo
[17] = Plasma clearance in CD rat at 1 mg/kg, iv and 5 mg/kg, po; type: ADME, organism-based

Chain of Human immunodeficiency virus type 1 integrase (Q7ZJM1 whole entry): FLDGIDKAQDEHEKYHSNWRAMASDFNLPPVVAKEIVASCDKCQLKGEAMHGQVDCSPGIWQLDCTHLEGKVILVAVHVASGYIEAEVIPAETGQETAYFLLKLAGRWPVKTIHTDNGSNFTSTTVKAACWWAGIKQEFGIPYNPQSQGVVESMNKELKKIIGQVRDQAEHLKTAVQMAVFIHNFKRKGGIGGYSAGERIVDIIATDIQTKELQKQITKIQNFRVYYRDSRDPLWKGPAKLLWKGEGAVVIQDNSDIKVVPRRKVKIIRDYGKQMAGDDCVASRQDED

Row | SMILES | IC50 [1] [nM] | IC50 [2] [nM] | IC50 [3] [nM] | also measured
1 | CC(C)OCCCNC(=O)c1c(O)c2ncc(Cc3ccc(F)cc3)cc2[nH]c1=O | 8 | 9 | 190 | 
2 | CC(C)(CO)NC(=O)c1c(O)c2ncc(Cc3ccc(F)cc3)cc2[nH]c1=O | 2 | 3 | 19 | 
3 | C[C@H](O)CNC(=O)c1c(O)c2ncc(Cc3ccc(F)cc3)cc2[nH]c1=O | 7 | 3 | 78 | 
4 | C[C@@H](CO)NC(=O)c1c(O)c2ncc(Cc3ccc(F)cc3)cc2n(C)c1=O | 1 | 4 | 15 | AUC [4]: 22600 ng·h/mL; Ratio [5]: 2.7; AUC [6]: 1120 ng·h/mL; Ratio [7]: 0
5 | CC(C)(CO)CNC(=O)c1c(O)c2ncc(Cc3ccc(F)cc3)cc2[nH]c1=O | 4 | 4 | 41 | 
6 | Cn1c(=O)c(C(=O)NC2(CO)CCCC2)c(O)c2ncc(Cc3ccc(F)cc3)cc21 | 3 | 7 | 180 | 
7 | C[C@@H](CO)NC(=O)c1c(O)c2ncc(Cc3ccc(F)cc3)cc2[nH]c1=O | 6 | 4 | 19 | 
8 | O=C(NCCCN1CCCC1=O)c1c(O)c2ncc(Cc3ccc(F)cc3)cc2[nH]c1=O | 5 | 4 | 31 | 
9 | CNC(=O)c1c(O)c2ncc(Cc3ccc(F)cc3)cc2[nH]c1=O | 3 | 6 |  | 
10 | Cn1c(=O)c(C(=O)NCCN2CCNC2=O)c(O)c2ncc(Cc3ccc(F)cc3)cc21 | 2 | 5 | 9 | IC50 [8]: 11 nM; AUC [4]: 3550 ng·h/mL; selectivity ratio [9]: 1620; Ratio [5]: 0
11 | O=C(NCCCO)c1c(O)c2ncc(Cc3ccc(F)cc3)cc2[nH]c1=O | 4 | 11 | 41 | 
12 | C[C@@H](O)CNC(=O)c1c(O)c2ncc(Cc3ccc(F)cc3)cc2[nH]c1=O | 7 | 6 | 282 | 
13 | C[C@H](O)CNC(=O)c1c(O)c2ncc(Cc3ccc(F)cc3)cc2n(C)c1=O | 2 | 2 | 110 | 
14 | CN(CCNC(=O)c1c(O)c2ncc(Cc3ccc(F)cc3)cc2[nH]c1=O)S(C)(=O)=O | 9 | 4 | 49 | 
15 | O=C(NCCCN1CCOCC1)c1c(O)c2ncc(Cc3ccc(F)cc3)cc2[nH]c1=O | 6 | 8 | 37 | 
16 | Cn1c(=O)c(C(=O)NCC(F)F)c(O)c2ncc(Cc3ccc(F)cc3)cc21 | 1 | 5 | 2900 | 
17 | O=C(NCCN1CCCCC1)c1c(O)c2ncc(Cc3ccc(F)cc3)cc2[nH]c1=O | 38 | 14 | 172 | 
18 | NC(=O)c1c(O)c2ncc(Cc3ccc(F)cc3)cc2[nH]c1=O |  | 45 |  | 
19 | Cn1c(=O)c(C(=O)NCCCN2CCCC2=O)c(O)c2ncc(Cc3ccc(F)cc3)cc21 | 2 | 16 | 15 | 
20 | O=C(NCCCN1CCCC1)c1c(O)c2ncc(Cc3ccc(F)cc3)cc2[nH]c1=O | 39 | 23 | 109 | 
21 | CNC(=O)c1c(O)c2ncc(Cc3ccc(F)cc3)cc2n(C)c1=O | 1 | 4 | 55 | Ratio [10]: 9.2; clearance [11]: 2 mL/min/kg; AUC [6]: 13200 ng·h/mL; Ratio [7]: 0.8; AUC(0-t) at 24 h [12]: 38600 ng·h/mL; half-life [13]: 1.6 h; half-life [14]: 3.9 h; clearance [15]: 8.6 mL/min/kg

Row | SMILES | IC50 [1] [nM] | IC50 [2] [nM] | IC50 [3] [nM] | also measured
22 | Cn1c(=O)c(C(=O)NCCCO)c(O)c2ncc(Cc3ccc(F)cc3)cc21 | 1 | 5 | 40 | 
23 | C[C@H](CO)NC(=O)c1c(O)c2ncc(Cc3ccc(F)cc3)cc2[nH]c1=O | 7 | 5 | 33 | IC50 [8]: 20 nM; AUC [4]: 6370 ng·h/mL; selectivity ratio [9]: > 400; Ratio [5]: 0
24 | COCCNC(=O)c1c(O)c2ncc(Cc3ccc(F)cc3)cc2n(C)c1=O |  | 4 | 48 | half-life [16]: 4 h; AUC [4]: 1850 ng·h/mL; Ratio [5]: 0.1; AUC [6]: 1240 ng·h/mL; Ratio [7]: 0
25 | CN(CCNC(=O)c1c(O)c2ncc(Cc3ccc(F)cc3)cc2n(C)c1=O)S(C)(=O)=O | 1 | 5 | 7 | IC50 [8]: 7 nM; AUC [4]: 5810 ng·h/mL; selectivity ratio [9]: > 7200; Ratio [5]: 1.7
26 | C[C@H](CO)NC(=O)c1c(O)c2ncc(Cc3ccc(F)cc3)cc2n(C)c1=O | 2 | 8 | 11 | IC50 [8]: 4 nM; selectivity ratio [9]: > 12500
27 | CN1CCN(CCCNC(=O)c2c(O)c3ncc(Cc4ccc(F)cc4)cc3[nH]c2=O)CC1 | 28 | 11 | 110 | 
28 | Cn1c(=O)c(C(=O)NCCN2CCOCC2)c(O)c2ncc(Cc3ccc(F)cc3)cc21 | 4 | 13 | 23 | IC50 [8]: 64 nM; selectivity ratio [9]: 165
29 | O=C(NCCN1CCOCC1)c1c(O)c2ncc(Cc3ccc(F)cc3)cc2[nH]c1=O | 6 | 7 | 42 | IC50 [8]: 32 nM; selectivity ratio [9]: > 250
30 | Cn1c(=O)c(C(=O)NCCCN2CCCC2)c(O)c2ncc(Cc3ccc(F)cc3)cc21 | 9 | 6 | 34 | 
31 | CCOCCNC(=O)c1c(O)c2ncc(Cc3ccc(F)cc3)cc2[nH]c1=O | 4 | 9 | 65 | 
32 | Cn1c(=O)c(C(=O)NC(C)(C)CO)c(O)c2ncc(Cc3ccc(F)cc3)cc21 | 3 | 6 | 28 | 
33 | CC(=O)NCCNC(=O)c1c(O)c2ncc(Cc3ccc(F)cc3)cc2n(C)c1=O | 2 | 5 | 12 | IC50 [8]: 22 nM; selectivity ratio [9]: 807
34 | CC(C)CCNC(=O)c1c(O)c2ncc(Cc3ccc(F)cc3)cc2[nH]c1=O | 8 | 5 | 230 | 
35 | O=C(NC1CCS(=O)(=O)CC1)c1c(O)c2ncc(Cc3ccc(F)cc3)cc2[nH]c1=O | 48 | 9 | 170 | 
36 | C[C@H](CO)CNC(=O)c1c(O)c2ncc(Cc3ccc(F)cc3)cc2n(C)c1=O | 3 | 4 | 18 | 
37 | CCNC(=O)c1c(O)c2ncc(Cc3ccc(F)cc3)cc2n(C)c1=O | 2 | 4 | 650 | 
38 | CSCCNC(=O)c1c(O)c2ncc(Cc3ccc(F)cc3)cc2[nH]c1=O | 5 | 5 | 256 | 
39 | COCCNC(=O)c1c(O)c2ncc(Cc3ccc(F)cc3)cc2[nH]c1=O | 5 | 5 | 35 | AUC [4]: 1650 ng·h/mL; Ratio [5]: 0.1
40 | O=C(NCCO)c1c(O)c2ncc(Cc3ccc(F)cc3)cc2[nH]c1=O | 6 | 5 | 51 | IC50 [8]: 80 nM; AUC [4]: 3060 ng·h/mL; selectivity ratio [9]: > 250; Ratio [5]: 0.8
41 | Cn1c(=O)c(C(=O)NCCO)c(O)c2ncc(Cc3ccc(F)cc3)cc21 [GSK-364735] | 2 | 8 | 20 | IC50 [8]: 5 nM; AUC [4]: 22800 ng·h/mL; selectivity ratio [9]: > 2000; Ratio [5]: 0.3; clearance [17]: 3.2 mL/min/kg

From ChEMBL document CHEMBL2311459, “Naphthyridinone (NTD) integrase inhibitors: N1 protio and methyl combination substituent effects with C3 amide groups” (Bioorg Med Chem Lett, 2013)
